In PubChem BioAssay (NCI) one finds TGI data, which are given here for nine molecules.

Some test systems named below: 786-0 renal; A498 renal; ACHN renal; IGROV1 ovarian; K-562 leukemia; OVCAR-3 ovarian; SK-OV-3 ovarian; SNB-75 CNS; SW-620 colon; TK-10 renal.
What all share (assay): inhibition of tumour cell growth, NCI panel, 48 h

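Exposure lasted 48 hours, with cells grown in 96-well plates and compounds tested at five concentrations. At the TGI there is no net growth.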 Where only a bound is given, the exact number is not on record here.

`COc1ccc(N=C2C(=O)C3=C(OC(C)(C)CC3)c3ccccc32)cc1`: the TGI in the assay on 786-0 renal is 1.99 µM; in the assay with A498 renal, 14.7 µM; in the assay with ACHN renal, 1.57 µM; in the assay on IGROV1 ovarian, 11.2 µM; with K-562 leukemia, 2.24 µM; with OVCAR-3 ovarian, 1.5 µM. Besides, the TGI in the assay with SK-OV-3 ovarian is 4.4 µM; with SNB-75 CNS it was 1.96 µM; with SW-620 colon it was 1.56 µM; in the assay with TK-10 renal, 7.93 µM.

As for `N#CC(c1ccccc1)N1CCCN(C(C#N)c2ccccc2)C1c1ccccc1O` (stereo not given), the TGI in the assay with 786-0 renal, with A498 renal, in the assay with ACHN renal, with IGROV1 ovarian, with K-562 leukemia and in the assay with OVCAR-3 ovarian was above 100 µM in each case. Further, the TGI in the assay on SK-OV-3 ovarian, in the assay on SNB-75 CNS, in the assay with SW-620 colon and in the assay with TK-10 renal was above 100 µM throughout.

`O=S1(=O)OC(c2ccc(O)cc2)(c2ccc(O)cc2)c2ccccc21`: the TGI in the assay with 786-0 renal, in the assay on A498 renal, with ACHN renal, in the assay on IGROV1 ovarian, with K-562 leukemia and in the assay on OVCAR-3 ovarian was above 100 µM each time. Besides, the TGI with SK-OV-3 ovarian, in the assay on SNB-75 CNS, in the assay on SW-620 colon and in the assay on TK-10 renal was above 100 µM each time.

As for `Nc1nc(N)c2c(n1)NC(c1ccccc1)CC(/C=C/c1ccc(Cl)cc1)=N2` (stereo not given), the TGI in the assay on 786-0 renal is 12 µM; with A498 renal, 32.9 µM; in the assay on ACHN renal it was 25.5 µM; with IGROV1 ovarian, 7.67 µM; with K-562 leukemia, 9.61 µM; with OVCAR-3 ovarian, 23.4 µM. Also, the TGI in the assay with SK-OV-3 ovarian was found to be 29.4 µM; in the assay on SNB-75 CNS, 33.9 µM; with SW-620 colon, 26.8 µM; with TK-10 renal, 8.64 µM.

On to `COc1ccc(N=c2ssc(C(=S)Nc3ccc(OC)cc3)c2S)cc1`, for which the TGI in the assay on 786-0 renal, in the assay with A498 renal, in the assay on ACHN renal, with IGROV1 ovarian, in the assay on K-562 leukemia and in the assay with OVCAR-3 ovarian was above 100 µM in each case. The TGI in the assay with SK-OV-3 ovarian, in the assay on SNB-75 CNS, with SW-620 colon and in the assay on TK-10 renal was above 100 µM each time.

For `C[C@]12CCC(=O)C=C1CC[C@@H]1[C@@H]2[C@@H](O)C[C@@]2(C)[C@H]1CC[C@]2(O)C(=O)CO`, the TGI in the assay with 786-0 renal, in the assay on A498 renal, in the assay on ACHN renal, in the assay with IGROV1 ovarian, in the assay on K-562 leukemia and in the assay on OVCAR-3 ovarian was above 100 µM each time. For the same molecule, the TGI in the assay with SK-OV-3 ovarian, in the assay on SNB-75 CNS, in the assay on SW-620 colon and in the assay with TK-10 renal was above 100 µM in each case.

Consider `CN(C)CCn1c(=O)c2ccc3c4c(nn3CCN(C)C)c3cc(N)ccc3n(c1=O)c24`, for which the TGI in the assay on 786-0 renal is 0.0573 µM; in the assay on A498 renal, 0.364 µM; in the assay with ACHN renal, 0.428 µM; in the assay with IGROV1 ovarian, 4.45 µM; in the assay on K-562 leukemia it was 16.7 µM; with OVCAR-3 ovarian, 0.164 µM. Besides, the TGI in the assay on SK-OV-3 ovarian was 0.621 µM; in the assay with SNB-75 CNS it was 0.0971 µM; with SW-620 colon, 1.87 µM; in the assay on TK-10 renal it was 3.8 µM.

Regarding `COc1c2c(cc3c1C(O)N1CC[C@]34[C@H]3O[C@H]3[C@H](OC)C[C@@H]14)OCO2` (stereo not given in full), the TGI is above 100 µM with 786-0 renal; above 100 µM in the assay with A498 renal; above 100 µM in the assay on ACHN renal; above 100 µM in the assay with IGROV1 ovarian; above 100 µM with K-562 leukemia; 38.4 µM in the assay with OVCAR-3 ovarian. The TGI in the assay on SK-OV-3 ovarian was 97.1 µM; with SNB-75 CNS it was above 100 µM; in the assay on SW-620 colon, above 100 µM; with TK-10 renal it was above 100 µM.

On to `CN(CCCNC(=O)c1cn(C)c2c1ccc1cc(Cl)c(Cl)cc12)CCCNC(=O)c1cn(C)c2c1ccc1cc(Cl)c(Cl)cc12`, for which the TGI in the assay on 786-0 renal is 49.4 µM; in the assay on A498 renal, 28 µM; in the assay on ACHN renal it was 27.2 µM; in the assay on IGROV1 ovarian it was 25.5 µM; in the assay on K-562 leukemia, 26.2 µM; with OVCAR-3 ovarian, above 54.9 µM. Moreover, the TGI was 30.7 µM in the assay on SK-OV-3 ovarian, 25.6 µM in the assay on SNB-75 CNS, 19.1 µM in the assay with SW-620 colon and 37.4 µM with TK-10 renal.
